Source: US11959095B2, “Compositions, cell constructs, and methods of making and using the same” (Wake Forest University Health Sciences, priority 2016, dated 2024)

Columns and labels:
[1] = test system: U138 spheroids; experiment: WNT pathway modulation in GBM U138 spheroids in hydrogel; assay type: cell-based
Experimental: For the WNT experiments, spheroids of GBM U 138(ATCC® HTB-16™) cell line were formed by hanging drop method in a 96 well plate by using 10,000 cells per drop of 20 μl, which were cultured for 72 hours in high glucose DMEM before being harvested to be setup in HyStem HP-Hydrogels. The spheroids were placed sandwiched between two layers of gel of total volume of 250 μl. The spheroids were then given different media compositions. Normal high glucose media being the control, the spheroids behaviour in WNT pathway agonist BIO and WNT pathway antagonist XAV939 were studied.
Experiments were conducted with single cell cancer spheroids with U138 cells. The WNT pathway was manipulated by adding either an agonist of the WNT pathway BIO or an antagonist of the WNT pathway XAV939 to the media.

[2] = test system: liver organoids; experiment: APAP toxicity testing and N-acetyl-L-cysteine intervention in liver organoids; assay type: cell-based, human; conditions: 10 mM APAP plus 20 mM NAC
[3] = test system: cells on PEGSSDA hydrogel; experiment: Proliferation on PEGSSDA hydrogel softened with NAC, MTS assay; assay type: cell-based; conditions: gels softened on day 4 with NAC 100 mmol for 60 minutes, vs control gels
Experimental: (§1) In a 96 well plate, we placed 10,000 cells on two sets of nine wells of 50 ul PEGSSDA hydrogel and the wells were filled with DMEM high glucose and cultured for a week. On day 4, one set of gels were softened using NAC 100 mmol for 60 minutes. Now proliferation of cells was compared between control gels and softened gels using MTS assays on day 7.

[4] = cited from earlier work
[5] = test system: cells on S3 stiff hydrogel; experiment: Proliferation on S3 stiff hydrogel softened with collagenase, MTS assay; assay type: cell-based; conditions: gels softened on day 4 with collagenase (1:10 dilution) for 10 minutes, vs control gels
Experimental: as §1, with “S3 stiff” for “PEGSSDA”, “collagenase (1:10 dilution)” for “NAC 100 mmol”, “10” for “60”, “contol” for “control”

O=C1Nc2cc(Br)ccc2/C1=C1/Nc2ccccc2/C1=N\O [BIO]
proliferation and migration in the spheroids ([1]; WNT pathway agonist added to the media): shut down proliferation and migration

CC(=O)N[C@@H](CS)C(=O)O [NAC, N-acetyl-L-cysteine]
detected urea production [2]: increased over time | detected albumin production ([2]; day 14): 98 ng/mL | proliferation of cells (MTS, day 7) [3]: Reduced proliferation

Cn1nnc2c(C(N)=O)ncn2c1=O [TMZ, temozolomide]
concentrations in the cerebrospinal fluid (CSF) relative to plasma ([4]; CSF vs plasma): approximately 20% | peak CSF concentrations ([4]; CSF): 26 ± 4 µM

Oc1nc(-c2ccc(C(F)(F)F)cc2)nc2c1CSCC2 [XAV939]
cancer cells' phenotype (morphology) ([1]; WNT pathway antagonist added to the media): more epithelial appearance than a mesenchymal appearance

collagenase
proliferation of cells (MTS, day 7) [5]: the same results were observed
